Like-named read-outs stand apart in the source and are kept apart here. Bounds are passed on as bounds.

The source of these data is patent publication US7732434B2, “Macrocyclic acyl guanidines as beta-secretase inhibitors” (Bristol-Myers Squibb Company, priority 2007, dated 2010).

The conditions of series [1]: rcm bond, 1,2-dichloroethane.
For series [2], the target named is T1, BACE1 enzyme (Homo sapiens, UniProt P56817).
T1 construct: The HEK293-9B.A1 cell line, which overexpresses the BACE1 enzyme, was derived from HEK293 cells; endogenous in cells; washed 48,000 x g pellet of cell homogenate
T1 sequence (P56817 46-501): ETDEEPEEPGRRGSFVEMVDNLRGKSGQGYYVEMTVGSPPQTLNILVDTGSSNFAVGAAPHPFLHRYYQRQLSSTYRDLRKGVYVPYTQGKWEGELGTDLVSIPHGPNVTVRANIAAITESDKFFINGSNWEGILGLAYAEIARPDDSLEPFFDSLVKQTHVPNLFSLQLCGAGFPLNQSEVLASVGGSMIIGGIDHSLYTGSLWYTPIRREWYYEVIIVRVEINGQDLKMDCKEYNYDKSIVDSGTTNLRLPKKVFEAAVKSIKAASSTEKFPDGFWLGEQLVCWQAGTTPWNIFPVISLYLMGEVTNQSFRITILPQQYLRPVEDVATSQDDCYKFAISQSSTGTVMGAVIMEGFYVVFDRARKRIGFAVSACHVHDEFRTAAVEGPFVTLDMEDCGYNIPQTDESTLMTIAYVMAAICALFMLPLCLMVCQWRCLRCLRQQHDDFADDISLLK
As to the kind of experiment: Radioligand displacement assay with a radiolabeled BACE inhibitor, HEK293-9B.A1 cell homogenate. It is filed as binding. Particulars: displacement of 1 nM radioligand, HEK293-9B.A1 homogenate, pH 5.0, 1.5 hr at 25° C.; read-out: Activity Rating (activity based on IC50 values). As to the method: Radioligand displacement assays with a radiolabeled BACE inhibitor (WO 2004 013098, compound 3, where the methoxy group is substituted for C(^3H)3) were carried out using standard methods (Keen, M. (1999) in Receptor Binding Techniques (Walker, J. M. ed) p. 106Humana Press, Totowa, N.J.). The HEK293-9B.A1 cell line, which overexpresses the BACE1 enzyme, was derived from HEK293 cells (Simmons, N. L. (1990) A cultured human renal epithelioid cell line responsive to vasoactive intestinal peptide. Exp. Physiol. 75:309-19.) by RAGE™ (Harrington, J. J. et al. (2001) Creation of genome-wide protein expression libraries using random activation of gene expression. Nat. Biotechnol. 19:440-5.; U.S. Pat. Nos. 6,410,266 and 6,361,972). T225 flask cultures of HEK293-9B.A1 were grown to 80% confluency in DMEM supplemented with 2 mM L-glutamine, 10 μg/ml penicillin, 10 μg/ml streptomycin, 3 μg/ml puromycin, 100 nM methotrexate, and 10% fetal bovine serum (Invitrogen, Carlsbad, Calif.), harvested, and resuspended at 2×10^8 cells per 10 ml of lysis buffer consisting of 50 mM HEPES pH 7.0 containing a protease inhibitor cocktail of AEBSF 104 μM, aprotinin 80 nM, leupeptin 2 μM, bestatin 4 μM, pepstatin A 1.5 μM, and E-64 1.4 μM (0.1% of protease inhibitor cocktail P8340, Sigma-Aldrich, St. Louis, Mo.) at 4° C. The resuspended cells were homogenized using a Polytron (Brinkman, Westbury, N.Y.) at setting 6 for 10 sec., then centrifuged at 48,000×g for 10 min. The resulting pellet was washed by repeating the resuspension, homogenization and centrifugation steps. The final pellet was resuspended in buffer at 4° C. to yield a total protein concentration of 5 mg/ml, then aliquots were frozen in liquid nitrogen for further storage at −70° C. Immediately before carrying out a binding assay, an aliquot of cell homogenate was thawed and diluted to a concentration of 100 μg/ml in assay buffer consisting of 50 mM HEPES pH 5.0 and 0.1% CHAPSO. Assays were initiated in polypropylene 96-well plates (Costar, Cambridge, Mass.) by the addition of 200 μl of cell homogenate to 50 μl of assay buffer containing 1 nM radioligand (WO 2004 013098, compound 3, where the methoxy group is substituted for C(^3H)3: 80 Ci/mMol) and various concentrations of unlabelled compounds, and incubated for 1.5 hr. at 25° C. Separation of bound from free radioligand was by filtration on GFF glass fiber filters (Innotech Biosystems International, Lansing, Mich.) using an Innotech cell harvester. Filters were washed three times with 0.3 ml of phosphate buffered saline pH 7.0 at 4° C. and assessed for radioactivity using a Wallac 1450 Microbeta liquid scintillation counter (PerkinElmer, Boston, Mass.). Ki values of competing compounds were derived through Cheng-Prussoff correction of IC50 values calculated using XLfit (IDBS, Guildford, UK).
(In general: In a radioligand displacement assay an active substance lowers the binding of a labelled ligand.)

For `Cc1onc2c1C(=O)N=C(NC(=O)OC(C)(C)C)NCc1cc(Cl)c(c(Cl)c1)NC(=O)CN(C(=O)OC(C)(C)C)CC=CCOc1ccc-2cc1`, the ring closure, yield of all isomers in series [1] (from C=CCOc1ccc(-c2noc(C)c2C(=O)/N=C(/NCc2cc(Cl)c(NC(=O)CN(CC=C)C(=O)OC(C)(C)C)c(Cl)c2)NC(=O)OC(C)(C)C)cc1, Grubbs Catalyst 2nd Generation, 5.84 mM, 45.0 °C, 2.0 h) was 53%.

For the molecule `Cc1onc2c1C(=O)N=C(NC(=O)OC(C)(C)C)NCc1cc(Cl)c(c(Cl)c1)NC(=O)CN(C(=O)OC(C)(C)C)CCCC=CCOc1ccc-2cc1`, the ring closure, yield of all isomers in series [1] (from C=CCCCN(CC(=O)Nc1c(Cl)cc(CN/C(=N/C(=O)c2c(-c3ccc(OCC=C)cc3)noc2C)NC(=O)OC(C)(C)C)cc1Cl)C(=O)OC(C)(C)C, Grubbs Catalyst 2nd Generation, 3.94 mM, 40.0 °C, 2.0 h) was 69.9%. As for `Cc1snc2c1C(=O)N=C(NC(=O)OC(C)(C)C)NCc1cc(Cl)c(c(Cl)c1)NC(=O)CN(C(=O)OC(C)(C)C)CCCC=CCOc1ccc-2cc1`, the ring closure, yield of all isomers in series [1] (from C=CCCCN(CC(=O)Nc1c(Cl)cc(CN/C(=N/C(=O)c2c(-c3ccc(OCC=C)cc3)nsc2C)NC(=O)OC(C)(C)C)cc1Cl)C(=O)OC(C)(C)C, Grubbs Catalyst 1st Generation, 3.04 mM, 70.0 °C, 6.0 h) turned out to be 68%. As for `Cc1onc2c1C(=O)N=C(NC(=O)OC(C)(C)C)NCc1cc(Cl)c(c(Cl)c1)NC(=O)CN(C(=O)OC(C)(C)C)CCCCC=CCOc1ccc-2cc1` (mixture of isomers), the ring closure, yield of all isomers in series [1] (from C=CCCCCN(CC(=O)Nc1c(Cl)cc(CN/C(=N/C(=O)c2c(-c3ccc(OCC=C)cc3)noc2C)NC(=O)OC(C)(C)C)cc1Cl)C(=O)OC(C)(C)C, Grubbs Catalyst 2nd Generation, 3.71 mM, 45.0 °C, 2.0 h) is 64.9%. Consider `Cc1onc2c1C(=O)/N=C(\N)NCc1cc(Cl)c(c(Cl)c1)NC(=O)CNCC=CCOc1ccc-2cc1` [Example 1, 9-Amino-14,30-dichloro-5-methyl-4,24-dioxa-3,8,10,16,19-pentaazatetracyclo-[23.2.2.2^12,15.0^2,6]hentriaconta-1(27),2,5,8,12,14,21,25,28,30-decaene-7,17-dione], for which the IC50 (as a rule, the point on the concentration scale where inhibition reaches its midpoint) in series [2] was above 50 nM. As to `Cc1onc2c1C(=O)/N=C(\N)NCc1cc(Cl)c(c(Cl)c1)NC(=O)CNCC/C=C/COc1ccc-2cc1` [Example 2, (22E)-9-Amino-14,31-dichloro-5-methyl-4,25-dioxa-3,8,10,16,19-pentaazatetracyclo[24.2.2.2^12,15.0^2,6]dotriaconta-1(28),2,5,8,12,14,22,26,29,31-decaene-7,17-dione], in series [2], the concentration for half-maximal inhibition (IC50) is above 50 nM. For `Cc1onc2c1C(=O)/N=C(\N)NCc1cc(Cl)c(c(Cl)c1)NC(=O)CNCCC/C=C\COc1ccc-2cc1` [Example 3, 9-Amino-14,32-dichloro-5-methyl-4,26-dioxa-3,8,10,16,19-pentaazatetracyclo-[25.2.2.2^12,15.0^2,6]tritriaconta-1(29),2,5,8,12,14,23,27,30,32-decaene-7,17-dione], the IC50 in series [2] is 5 to 50 nM. Regarding `Cc1snc2c1C(=O)/N=C(\N)NCc1cc(Cl)c(c(Cl)c1)NC(=O)CNCCCC=CCOc1ccc-2cc1` [Example 4, 9-Amino-14,32-dichloro-5-methyl-26-oxa-4-thia-3,8,10,16,19-pentaazatetracyclo[25.2.2.2^12,15.0^2,6]tritriaconta-1(29),2,5,8,12,14,23,27,30,32-decaene-7,17-dione], the IC50 in series [2] is 5 to 50 nM.

As to `Cc1snc2c1C(=O)/N=C(\N)NCc1cc(Cl)c(c(Cl)c1)NC(=O)CNCCCCCCOc1ccc-2cc1` [Example 5, 9-Amino-14,32-dichloro-5-methyl-26-oxa-4-thia-3,8,10,16,19-pentaazatetracyclo[25.2.2.2^12,15.0^2,6]tritriaconta-1(29),2,5,8,12,14,27,30,32-nonaene-7,17-dione], the IC50 in series [2] lay within 5 to 50 nM.

As to `Cc1snc2c1C(=O)/N=C(\N)NCc1cc(Cl)c(c(Cl)c1)NC(=O)CN(Cc1ccccc1)CCCC=CCOc1ccc-2cc1` [Example 6, 9-Amino-19-benzyl-14,32-dichloro-5-methyl-26-oxa-4-thia-3,8,10,16,19-pentaazatetracyclo[25.2.2.2^12,15.0^2,6]tritriaconta-1(29),2,5,8,12,14,23,27,30,32-decaene-7,17-dione], in series [2], the 50% inhibitory concentration (IC50) fell in the range of 5 to 50 nM. For the molecule `Cc1onc2c1C(=O)/N=C(\N)NCc1cc(Cl)c(c(Cl)c1)NC(=O)CNCCCC/C=C\COc1ccc-2cc1` [Example 7, (24Z)-9-Amino-14,33-dichloro-5-methyl-4,27-dioxa-3,8,10,16,19-pentaazatetracyclo[26.2.2.2^12,15.0^2,6]tetratriaconta-1(30),2,5,8,12,14,24,28,31,33-decaene-7,17-dione], in series [2], the half-inhibitory concentration (IC50) is below 5 nM. For the molecule `Cc1snc2c1C(=O)/N=C(\N)NCc1cc(Cl)c(c(Cl)c1)NC(=O)CNCC/C=C\COc1ccc-2cc1` [Example 8, (22Z)-9-Amino-14,31-dichloro-5-methyl-25-oxa-4-thia-3,8,10,16,19-pentaazatetracyclo[24.2.2.2^12,15.0^2,6]dotriaconta-1(28),2,5,8,12,14,22,26,29,31-decaene-7,17-dione], the IC50 in series [2] was below 5 nM.

As to `Cc1snc2c1C(=O)/N=C(\N)NCc1cc(Cl)c(c(Cl)c1)NC(=O)CNCCCCCOc1ccc-2cc1` [Example 9, 9-Amino-14,31-dichloro-5-methyl-25-oxa-4-thia-3,8,10,16,19-pentaazatetracyclo[24.2.2.2^12,15.0^2,6]dotriaconta-1(28),2,5,8,12,14,26,29,31-nonaene-7,17-dione], the IC50 in series [2] was below 5 nM. Consider `Cc1onc2c1C(=O)/N=C(\N)NCc1ccc(cc1)NC(=O)CNCCC/C=C\COc1ccc-2cc1` [Example 10, (23Z)-9-Amino-5-methyl-4,26-dioxa-3,8,10,16,19-pentaazatetracyclo-[25.2.2.2^12,15.0^2,6]tritriaconta-1(29),2,5,8,12,14,23,27,30,32-decaene-7,17-dione], for which, in series [2], the IC50 is below 5 nM. `Cc1onc2c1C(=O)N=C(N)NCc1ccc(c(Cl)c1)NC(=O)CNCCC/C=C\COc1ccc-2cc1` [Example 11, (23Z)-9-Amino-14-chloro-5-methyl-4,26-dioxa-3,8,10,16,19-pentaazatetracyclo-[25.2.2.2^12,5.0^2,6]tritriaconta-1(29),2,5,8,12,14,23,27,30,32-decaene-7,17-dione]: the half-inhibitory concentration (IC50) in series [2] was below 5 nM.
